Where a name gives a salt, the structure may show the parent alone.
Biological target: purified human Factor XIa (Homo sapiens (Human), UniProt P03951)
Assay: Factor XIa chromogenic substrate (S-2366) inhibition assay
Assay type: biochemical
Procedure: The effectiveness of compounds of the present invention as inhibitors of the coagulation factors XIa, VIIa, IXa, Xa, XIIa, plasma kallikrein or thrombin, can be determined using a relevant purified serine protease, respectively, and an appropriate synthetic substrate. The rate of hydrolysis of the chromogenic or fluorogenic substrate by the relevant serine protease was measured both in the absence and presence of compounds of the present invention. […] A decrease in the rate of absorbance or fluorescence change in the presence of inhibitor is indicative of enzyme inhibition. Such methods are known to one skilled in the art. The results of this assay are expressed as the inhibitory constant, Ki. […] JT Baker or Fisher Scientific). […] Values of Ki were determined by allowing the protease to react with the substrate in the presence of the inhibitor. Reactions were allowed to go for periods of 20-180 minutes (depending on the protease) and the velocities (rate of absorbance or fluorescence change versus time) were measured.

[1] = substrate S-2366, activity ranges, Table A

Chain of purified human Factor XIa (P03951 388-625): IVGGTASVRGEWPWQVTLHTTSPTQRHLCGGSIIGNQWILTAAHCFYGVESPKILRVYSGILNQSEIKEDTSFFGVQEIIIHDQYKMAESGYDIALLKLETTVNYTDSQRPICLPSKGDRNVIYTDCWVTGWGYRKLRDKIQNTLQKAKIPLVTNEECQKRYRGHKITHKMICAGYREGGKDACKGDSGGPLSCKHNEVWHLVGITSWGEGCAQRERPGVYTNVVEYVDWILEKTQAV
Chain of purified human Factor XIa (P03951 19-387 partner): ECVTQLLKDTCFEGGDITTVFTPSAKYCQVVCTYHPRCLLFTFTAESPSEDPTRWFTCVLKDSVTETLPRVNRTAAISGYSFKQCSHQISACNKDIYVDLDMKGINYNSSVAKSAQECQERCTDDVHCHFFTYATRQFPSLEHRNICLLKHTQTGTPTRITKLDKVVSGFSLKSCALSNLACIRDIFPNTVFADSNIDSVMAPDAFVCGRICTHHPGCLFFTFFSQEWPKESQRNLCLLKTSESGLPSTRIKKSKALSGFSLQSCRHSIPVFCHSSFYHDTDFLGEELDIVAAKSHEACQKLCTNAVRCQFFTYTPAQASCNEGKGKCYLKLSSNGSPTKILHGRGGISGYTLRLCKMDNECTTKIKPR

For `O=C(O)c1ccc(NC(=O)C2c3cccc(N4CCCNCC4)c3CCN2C(=O)/C=C/c2c(-n3cnnn3)ccc(Cl)c2F)cc1` (racemic) [Example 256], the Ki [1] was less than 5 nM.
`CN(C)[C@H]1CCN(c2cccc3c2CCN(C(=O)/C=C/c2c(-n4cnnn4)ccc(Cl)c2F)[C@@H]3C(=O)Nc2ccc(C(=O)OC(C)(C)C)cc2)C1` [Example 207, tert-butyl 4-((S)-2-((E)-3-(3-chloro-2-fluoro-6-(1H-tetrazol-1-yl)phenyl)acryloyl)-5-((S)-3-(dimethylamino)pyrrolidin-1-yl)-1,2,3,4-tetrahydroisoquinoline-1-carboxamido)benzoate, bis TFA salt] showed a Ki [1] of 5 to 10 nM.
In the case of `NCc1ccc(Cl)cc1/C=C/C(=O)N1CCc2c(cccc2N2CCNCC2)C1C(=O)Nc1ccc(C(=O)O)cc1` (stereo not drawn) [Example 32, (E)-4-(2-(3-(2-(Aminomethyl)-5-chlorophenyl)acryloyl)-5-(piperazin-1-yl)-1,2,3,4-tetrahydroisoquinoline-1-carboxamido)benzoic acid, tri TFA Salt], the Ki [1] is reported as 100 to 500 nM.
`O=C(Nc1ccc(F)cc1)C1c2cccc(N3CCNCC3)c2CCN1C(=O)/C=C/c1cc(Cl)ccc1-n1cnnn1` (stereo not drawn) [Example 2] gave a Ki [1] of 100 to 500 nM.
For `CC(=O)c1ccc(Cl)c(F)c1/C=C/C(=O)N1CCc2c(cccc2N2CCCCC2=O)[C@H]1C(=O)Nc1ccc(C(=O)O)cc1` [compound 40], the Ki [1] was less than 5 nM.
For `N#Cc1ccc(NC(=O)C2c3cccc(N4CCC(N5CCCC5)CC4)c3CCN2C(=O)/C=C/c2c(-n3cnnn3)ccc(Cl)c2F)cc1` (racemic) [Example 85], the Ki [1] was less than 5 nM.
For `O=C(O)c1ccc(NC(=O)C2c3cccc(N4CCC(O)CC4)c3CCN2C(=O)/C=C/c2c(-n3cnnn3)ccc(Cl)c2F)cc1` (racemic) [Example 148], the Ki [1] was less than 5 nM.
With `O=C(O)c1ccc(NC(=O)C2c3cccc(N4CCC(N5CCCCC5)CC4)c3CCN2C(=O)/C=C/c2c(-n3cnnn3)ccc(Cl)c2F)cc1` (racemic) [Example 115] the Ki [1] was less than 5 nM.
Compound `CN(C)C1CCN(c2cccc3c2CCN(C(=O)/C=C/c2c(C(F)(F)F)ccc(Cl)c2F)C3C(=O)Nc2ccc(C(=O)O)cc2)CC1` (racemic) [Example 223] has a Ki [1] of less than 5 nM.
For `CC(C)(C)OC(=O)c1ccc(NC(=O)C2c3cccc(N4CCN(C(=O)OC(C)(C)C)CC4=O)c3CCN2C(=O)/C=C/c2c(-n3cnnn3)ccc(Cl)c2F)cc1` (racemic) [Example 55], the Ki [1] was 100 to 500 nM.
`CCCCOC(=O)c1ccc(NC(=O)C2c3cccc(N4CCC(N5CCCC5)CC4)c3CCN2C(=O)/C=C/c2c(-n3cnnn3)ccc(Cl)c2F)cc1` (racemic) [Example 105] gave a Ki [1] of less than 5 nM.
`CC(=O)c1ccc(Cl)c(F)c1C=CC(=O)N1CCc2c(cccc2N2CCC(N3CCCC3)CC2)C1C(=O)Nc1ccc(C(=O)OCCn2cncn2)cc1` (stereo not drawn) [Example 173] showed a Ki [1] of 5 to 10 nM.
`CC(C)C1CCN(c2cccc3c2CCN(C(=O)/C=C/c2c(-n4cnnn4)ccc(Cl)c2F)C3C(=O)Nc2ccc(C(=O)O)cc2)CC1` (racemic) [Example 116] was tested, and the Ki [1] was less than 5 nM.
`O=C(NC1CCCCC1)C1c2cccc(N3CCC(N4CCCC4)CC3)c2CCN1C(=O)/C=C/c1c(-n2cnnn2)ccc(Cl)c1F` (racemic) [Example 239] was tested, and the Ki [1] was less than 5 nM.
`O=C(O)c1ccc(NC(=O)C2c3cccc(N4CCC(N5CCCC5=O)CC4)c3CCN2C(=O)/C=C/c2c(-n3cnnn3)ccc(Cl)c2F)cc1` (racemic) [Example 96] showed a Ki [1] of less than 5 nM.
Work on `O=C(O)c1ccc(NC(=O)C2c3cccc(N4CCC(N5CCNCC5)CC4)c3CCN2C(=O)/C=C/c2c(C(F)(F)F)ccc(Cl)c2F)cc1` (racemic) [Example 228] yielded a Ki (substrate S-2366, Table 1) of less than 5 nM.
With `CC1(C)Cc2c(cccc2N2CCNCC2)[C@H](C(=O)Nc2ccc(C(=O)O)cc2)N1C(=O)/C=C/c1c(-n2cnnn2)ccc(Cl)c1F` [Example 193, (R,E)-4-(2-(3-(3-Chloro-2-fluoro-6-(1H-tetrazol-1-yl)phenyl)acryloyl)-3,3-dimethyl-5-(piperazin-1-yl)-1,2,3,4-tetrahydroisoquinoline-1-carboxamido) benzoic acid, bis-TFA salt] the Ki (substrate S-2366, Table 1) was 107 nM.
Work on `COC(=O)Nc1ccc(NC(=O)C2c3cccc(N4CCOCC4)c3CCN2C(=O)/C=C/c2c(-n3cnnn3)ccc(Cl)c2F)cc1` (racemic) [Example 58] yielded a Ki [1] of 100 to 500 nM.

Source: patent US10208021B2, “Substituted tetrahydroisoquinoline compounds as factor XIa inhibitors” (BRISTOL-MYERS SQUIBB COMPANY, priority 2011, dated 2019)
